# “Also recorded” adds a separate entry of the source.
# System: T-cells
# Experiment: T-cell activation assay (anti-CD3 stimulated proliferation, 3H-Tdr incorporation)
# Assay type: cell-based
# Conditions: for activity in the T-cell activation assay (T-cell activation by anti-CD3, proliferation quantitated by 3H-Tdr incorporation): 30 min preincubation, anti-CD3 0.3 μg/ml, 56 h then 16 h with 3H-Tdr
# Experimental: FIG. 1. Effects of CD66a peptides on T-cell activation by anti-CD3. T-cells were added to media containing the indicated CD66a peptide S28 ((CD66a-24), (SEQ ID NO:1)) at 150 μg/ml (final concentration) or positive or negative controls in 96 well microtiter plates, and the plates were incubated at 37° C. for 30 min in 5% CO2. Media containing anti-CD3 anitbody was then added and the cells were incubated at […] for 56 hours. Twenty μL of media containing 1 μCi of ^3H-Tdr was then added to each well and the plates were incubated at 37° C. for 30 min in 5% CO2 for an additional 16 hours. The cells were then harvested onto glass fiber filter papers and the radioactivity incorporated into the cells was then determined by liquid scintillation counting. Values are shown as the amount of ^3H-Tdr incorporation in the presence of the indicated peptide as a percent of that incorpoated in the absence of peptide, and represent the means+/−SD of 4 separate determinations.
# Cell Preparation. Peripheral blood mononuclear cells (PBMC) were isolated by centrifugation of heparinized blood on a Ficoll/Hypaque (Pharmacia, Uppsala, Sweden) density gradient. Cells from the interface of the gradient were harvested, and resuspended at a concentration of 10^6/ml in medium [RPMI-1640 supplemented with 10% heat inactivated fetal bovine serum, 2 mM L-glutamine, 10 mM HEPES buffer, pH 7.4, 100 U/ml penicillin and 100 ug/ml streptomycin (Gibco, Paisley, U.K.)]. To isolate T-cells, adherent cells were eliminated from PBMC by culture for one hour at 37° C. in 5% CO2 on tissue culture-treated plastic. Remaining B-cells, monocytes, and NK cells were deleted by immunomagnetic negative selection using anti-CD14, anti-CD19, and anti-CD56 microbeads per the manufacturer's recommendations (Miltenyi Biotec GMBH, Bergisch Gladbach, Germany). The purity of the isolated T-cells was >90% as assessed by flow cytometry using FITC-labeled anti-CD3 (Pharmingen, Hamburg, Germany).
# T-cell activation assay. Purified T-cells (1×10^5/well) were plated into flat-bottomed 96 well microtiter plates (Greiner, Frickenhausen, Germany) and peptides were added at the indicated concentration. T-cells were incubated with the peptides for 30 min and then stimulated by adding 0.3 μg/ml of anti-CD3 mAb (Pharmingen). The cells were then incubated at 37° C. in 5% CO2 for 56 hours. One μCi of tritiated thymidine (3H-Tdr) (Amersham Buchler, Braunschweig, Germany) in 20 μl of RPMI-1640 was then added to each well, and the cells were cultured for another 16 hours. Cells were then harvested with a cell harvester (Pharmacia LKB-Wallac) onto glass fiber filter paper in a minifold filtration unit (Wallac, Turku, Finland). Individual filters were dissolved in scintillation fluid, and ^3H-Tdr incorporation was measured with a liquid scintillation counter (Pharmacia).
Substance,"activity in the T-cell activation assay (T-cell activation by anti-CD3, proliferation quantitated by 3H-Tdr incorporation) (peptide 150 μg/ml)","T-cell proliferation (3H-Tdr incorporation) in the presence of peptide compared with media alone (positive control) (peptide 150 μg/ml, anti-CD3 stimulation, 4 determinations, p<0.05)","cell proliferation (3H-Tdr incorporation) in the presence of peptide compared with the 2 scrambled peptides S159 and S160 (peptides 150 μg/ml, anti-CD3 stimulation, 4 determinations, p<0.05)"
"IRWFFKN [Peptide S182, smaller part (right) of peptide S28]",had activity,–,–
"TGISIRW [Peptide S181, smaller part (middle) of peptide S28]",had activity,–,–
"TNDTGIS [Peptide S180, smaller part (left) of peptide S28]",had activity,–,–
"TNDTGISIRWFFKN [Peptide S28, 14-amino-acid peptide derived from CD66a]",inhibited T-cell activation by anti-CD3 compared with control; also recorded: found to have activity; also recorded: potent inhibitor of T-cell activation,statistically less than that observed with media alone,statistically less than that observed with the 2 scrambled peptides
